Measurements reported in US9718790B2, “Triazine derivative and pharmaceutical composition having an analgesic activity comprising the same” (SHIONOGI & CO., LTD., priority 2010, dated 2017).

Molecular target: human P2X3 receptor (Homo sapiens (Human), UniProt P56373)
Test: Evaluation of human P2X3 receptor inhibitory activity (Fluo-3 calcium fluorescence, FDSS 3000, ATP stimulation);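 note: stimulus was 50 nM ATP with fluorescence followed for 3 min, and the response per well was peak post-ATP fluorescence divided by the reading at measurement start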
Type: cell-based
[1] = human P2X3 receptor, Test Example 1
[2] = C6BU-1 cells stably expressing human P2X3 receptor, Fluo-3 fluorescence, FDSS 3000

Sequence of human P2X3 receptor (P56373 whole entry): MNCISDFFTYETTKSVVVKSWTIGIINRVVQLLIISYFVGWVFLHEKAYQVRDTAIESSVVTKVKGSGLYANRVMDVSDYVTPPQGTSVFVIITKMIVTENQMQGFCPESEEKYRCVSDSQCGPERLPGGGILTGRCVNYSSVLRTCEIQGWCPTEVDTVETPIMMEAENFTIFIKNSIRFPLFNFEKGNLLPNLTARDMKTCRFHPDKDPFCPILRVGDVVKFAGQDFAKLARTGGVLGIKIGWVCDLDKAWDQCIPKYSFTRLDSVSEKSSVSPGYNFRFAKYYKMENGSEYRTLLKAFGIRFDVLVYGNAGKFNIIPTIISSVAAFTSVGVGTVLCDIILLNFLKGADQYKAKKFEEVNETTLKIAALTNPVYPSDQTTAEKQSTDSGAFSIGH

## Cc1nc2ccc(/N=c3\[nH]c(=O)n(CCC(=O)O)c(=O)n3Cc3ccc(Cl)cc3)cc2s1 [Compound I-1520]
[1]
  IC50: 32 nM

## Cc1ccc(Cn2c(=O)n(CCC(=O)O)c(=O)[nH]/c2=N\c2ccc3nc(C)sc3c2)cc1 [Compound I-1521]
[1]
  IC50: 22 nM

## COC(=O)[C@@H](C)Cn1c(=O)[nH]/c(=N\c2ccc(Oc3ccc(OC)nc3)cc2)n(Cc2ccc(C)cc2)c1=O [Compound I-1522]
[1]
  IC50: 5 nM

## CCOC(=O)CCn1c(=O)[nH]/c(=N\c2ccc(Oc3ccc(OC)nc3)cc2)n(Cc2ccc(Cl)cc2)c1=O [Compound I-1523]
[1]
  IC50: 3 nM

## COC(=O)[C@@H](C)Cn1c(=O)[nH]/c(=N\c2ccc(CC(C)(C)O)c(Cl)c2)n(Cc2ccc(C)cc2)c1=O [Compound I-1527]
[1]
  IC50: 5 nM

## COC(=O)[C@@H](C)Cn1c(=O)[nH]/c(=N\c2ccc(CC(C)(C)F)c(Cl)c2)n(Cc2ccc(C)cc2)c1=O [Compound I-1528]
[1]
  IC50: 32 nM

## COC(=O)[C@@H](C)Cn1c(=O)[nH]/c(=N\c2ccc(-c3noc(C)n3)cc2)n(Cc2ccc(Cl)cc2)c1=O [Compound I-1529]
[1]
  IC50: 26 nM

## Cc1nc(-c2ccc(/N=c3\[nH]c(=O)n(C[C@H](C)C(=O)O)c(=O)n3Cc3ccc(Cl)cc3)cc2)no1 [Compound I-1530]
[1]
  IC50: 93 nM

## Cc1ccc(Cn2c(=O)n(C[C@H](C)C(=O)O)c(=O)[nH]/c2=N\c2ccc(CC(C)(C)F)c(Cl)c2)cc1 [Compound I-1531]
[1]
  IC50: 25 nM

## Cc1ccc(Cn2c(=O)n(C[C@H](C)C(=O)O)c(=O)[nH]/c2=N\c2ccc(CC(C)(C)O)c(Cl)c2)cc1 [Compound I-1532]
[1]
  IC50: 25 nM

## COc1ccc(Oc2ccc(/N=c3\[nH]c(=O)n(CCC(=O)O)c(=O)n3Cc3ccc(Cl)cc3)cc2)cn1 [Compound I-1533]
[1]
  IC50: 16 nM

## COc1ccc(Oc2ccc(/N=c3\[nH]c(=O)n(C[C@H](C)C(=O)O)c(=O)n3Cc3ccc(C)cc3)cc2)cn1 [Compound I-1534]
[1]
  IC50: 5 nM

## O=C(O)CCn1c(=O)[nH]/c(=N\c2ccc(Oc3ccc(O)nc3)cc2)n(Cc2ccc(Cl)cc2)c1=O [Compound I-1535]
[1]
  IC50: 28 nM

## Cc1ccc(Cn2c(=O)n(C[C@H](C)C(=O)O)c(=O)[nH]/c2=N\c2ccc(Oc3ccc(O)nc3)cc2)cc1 [Compound I-1536]
[1]
  IC50: 24 nM

## CCOC(=O)C1(Cn2c(=O)[nH]/c(=N\c3ccc4nc(C)sc4c3)n(Cc3ccc(Cl)cc3)c2=O)CC1 [Compound I-1537]
[1]
  IC50: 3 nM

## CCOC(=O)C1(Cn2c(=O)[nH]/c(=N\c3ccc4oc(CC)c(C)c4c3)n(Cc3ccc(Cl)cc3)c2=O)CC1 [Compound I-1538]
[1]
  IC50: 17 nM

## CCOC(=O)C1(Cn2c(=O)[nH]/c(=N\c3ccc4nc(CC)sc4c3)n(Cc3ccc(Cl)cc3)c2=O)CC1 [Compound I-1539]
[1]
  IC50: 4 nM

## CC(C)Cc1ccc(/N=c2\[nH]c(=O)n(C[C@H](C)C(=O)O)c(=O)n2Cc2ccc(Cl)cn2)cc1Cl [Compound I-1540]
[1]
  IC50: 52 nM

## Cc1nc2ccc(/N=c3\[nH]c(=O)n(CC4COC(C)(C)OC4)c(=O)n3Cc3ccc(Cl)cc3)cc2s1 [Compound I-1542]
[1]
  IC50: 4 nM

## CNC(=O)CCn1c(=O)[nH]/c(=N\c2ccc3nc(C)sc3c2)n(Cc2ccc(Cl)cc2)c1=O [Compound I-1543]
[1]
  IC50: 6 nM

## Cc1nc2ccc(/N=c3\[nH]c(=O)n(CC(CO)CO)c(=O)n3Cc3ccc(Cl)cc3)cc2s1 [Compound I-1544]
[1]
  IC50: 4 nM

## CCOC(=O)C1(Cn2c(=O)[nH]/c(=N\c3ccc4nc(C)sc4c3)n(Cc3ccc(C)cc3)c2=O)CC1 [Compound I-1545]
[1]
  IC50: 3 nM

## CCOC(=O)C1(Cn2c(=O)[nH]/c(=N\c3ccc4oc(CC)c(C)c4c3)n(Cc3ccc(C)cc3)c2=O)CC1 [Compound I-1546]
[1]
  IC50: 7 nM

## CCOC(=O)C1(Cn2c(=O)[nH]/c(=N\c3ccc4nc(CC)sc4c3)n(Cc3ccc(C)cc3)c2=O)CC1 [Compound I-1547]
[1]
  IC50: 3 nM

## C=COc1ccc(/N=c2\[nH]c(=O)n(C[C@H](C)C(=O)OC)c(=O)n2Cc2ccc(C)cc2)cc1Cl [Compound I-1548]
[1]
  IC50: 5 nM

## C=COc1ccc(/N=c2\[nH]c(=O)n(C[C@H](C)C(=O)O)c(=O)n2Cc2ccc(C)cc2)cc1Cl [Compound I-1549]
[1]
  IC50: 8 nM

## C=COc1ccc(N(C)c2nc(=O)n(C[C@H](C)C(=O)OC)c(=O)n2Cc2ccc(C)cc2)cc1Cl [Compound I-1550]
[1]
  IC50: 833 nM

## CCc1oc2ccc(/N=c3\[nH]c(=O)n(CC4(C(=O)O)CC4)c(=O)n3Cc3ccc(Cl)cc3)cc2c1C [Compound I-1551]
[1]
  IC50: 9 nM

## Cc1nc2ccc(/N=c3\[nH]c(=O)n(CC4(C(=O)O)CC4)c(=O)n3Cc3ccc(Cl)cc3)cc2s1 [Compound I-1552]
[1]
  IC50: 15 nM

## CCc1nc2ccc(/N=c3\[nH]c(=O)n(CC4(C(=O)O)CC4)c(=O)n3Cc3ccc(Cl)cc3)cc2s1 [Compound I-1553]
[1]
  IC50: 11 nM

## Cc1ccc(Cn2c(=O)n(CC3(C(=O)O)CC3)c(=O)[nH]/c2=N\c2ccc3nc(C)sc3c2)cc1 [Compound I-1554]
[1]
  IC50: 14 nM

## CCc1oc2ccc(/N=c3\[nH]c(=O)n(CC4(C(=O)O)CC4)c(=O)n3Cc3ccc(C)cc3)cc2c1C [Compound I-1555]
[2]
  IC50: 16 nM

## CCc1nc2ccc(/N=c3\[nH]c(=O)n(CC4(C(=O)O)CC4)c(=O)n3Cc3ccc(C)cc3)cc2s1 [Compound I-1556]
[2]
  IC50: 11 nM

## CCCc1nc2ccc(/N=c3\[nH]c(=O)n(CCC(=O)OCC)c(=O)n3Cc3ccc(C)cc3)cc2s1 [Compound I-1558]
[2]
  IC50: 8 nM

## CCOC(=O)CCn1c(=O)[nH]/c(=N\c2ccc3nc(C4CC4)sc3c2)n(Cc2ccc(C)cc2)c1=O [Compound I-1559]
[2]
  IC50: 5 nM

## CCCc1nc2ccc(/N=c3\[nH]c(=O)n(CCC(=O)O)c(=O)n3Cc3ccc(C)cc3)cc2s1 [Compound I-1560]
[2]
  IC50: 51 nM

## Cc1ccc(Cn2c(=O)n(CCC(=O)O)c(=O)[nH]/c2=N\c2ccc3nc(C4CC4)sc3c2)cc1 [Compound I-1561]
[2]
  IC50: 32 nM

## CCOC(=O)CCn1c(=O)[nH]/c(=N\c2ccc3nc(C(C)C)sc3c2)n(Cc2ccc(C)cc2)c1=O [Compound I-1562]
[2]
  IC50: 6 nM

## Cc1ccc(Cn2c(=O)n(CCC(=O)O)c(=O)[nH]/c2=N\c2ccc3nc(C(C)C)sc3c2)cc1 [Compound I-1563]
[2]
  IC50: 31 nM

## CCc1oc2ccc(/N=c3\[nH]c(=O)n(CC(=O)OC)c(=O)n3Cc3ccc(Cl)cc3)cc2c1C [Compound I-1564]
[2]
  IC50: 13 nM

## CCc1oc2ccc(/N=c3\[nH]c(=O)n(CCNC(=O)C(F)(F)F)c(=O)n3Cc3ccc(Cl)cc3)cc2c1C [Compound I-1565]
[2]
  IC50: 8 nM

## CCc1oc2ccc(/N=c3\[nH]c(=O)n(CCNC(C)=O)c(=O)n3Cc3ccc(Cl)cc3)cc2c1C [Compound I-1566]
[2]
  IC50: 8 nM

## CCc1oc2ccc(/N=c3\[nH]c(=O)n(CCCNC(=O)C(F)(F)F)c(=O)n3Cc3ccc(Cl)cc3)cc2c1C [Compound I-1567]
[2]
  IC50: 12 nM

## CCc1oc2ccc(/N=c3\[nH]c(=O)n(CCCNC(C)=O)c(=O)n3Cc3ccc(Cl)cc3)cc2c1C [Compound I-1568]
[2]
  IC50: 10 nM

## COC(=O)C(C)(C)Cn1c(=O)[nH]/c(=N\c2ccc3nc(C)sc3c2)n(Cc2ccc(Cl)cc2)c1=O [Compound I-1569]
[2]
  IC50: 4 nM

## CNC(=O)CCn1c(=O)[nH]/c(=N\c2ccc3nc(C)sc3c2)n(Cc2ccc(C)cc2)c1=O [Compound I-1570]
[2]
  IC50: 8 nM

## COC(=O)C(C)(C)Cn1c(=O)[nH]/c(=N\c2ccc3nc(C)sc3c2)n(Cc2ccc(C)cc2)c1=O [Compound I-1571]
[2]
  IC50: 4 nM
